As usually defined, the IC50 is the concentration that gives 50% inhibition.

The source of these data is article PMC6744613 (ACS chemical neuroscience, 2018).

Test [1] addresses T1, COX-1 (Macaca mulatta, UniProt F6S984).
T1 sequence (F6S984 25-599): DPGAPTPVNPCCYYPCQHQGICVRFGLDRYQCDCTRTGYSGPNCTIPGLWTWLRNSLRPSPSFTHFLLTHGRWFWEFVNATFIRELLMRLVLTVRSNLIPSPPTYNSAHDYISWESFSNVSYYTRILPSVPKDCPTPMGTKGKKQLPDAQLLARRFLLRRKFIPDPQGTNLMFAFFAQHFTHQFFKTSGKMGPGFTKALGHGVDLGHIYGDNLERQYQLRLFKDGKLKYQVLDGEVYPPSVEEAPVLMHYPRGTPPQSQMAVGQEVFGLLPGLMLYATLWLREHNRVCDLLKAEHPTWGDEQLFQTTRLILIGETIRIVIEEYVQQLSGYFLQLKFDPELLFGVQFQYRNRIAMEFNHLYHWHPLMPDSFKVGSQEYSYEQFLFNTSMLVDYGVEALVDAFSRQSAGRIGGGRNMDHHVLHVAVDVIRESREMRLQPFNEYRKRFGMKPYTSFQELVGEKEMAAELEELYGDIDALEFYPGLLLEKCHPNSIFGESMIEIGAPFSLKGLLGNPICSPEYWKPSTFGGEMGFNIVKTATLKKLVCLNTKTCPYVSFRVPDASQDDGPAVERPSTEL
The test can be described thus: COX-1 whole-blood enzymatic immunoassay. The following applies: read-out: IC50 COX-1 Monkey, mean ± SD (n = 3). Format: cell-based.

The target in test [2] is T2, COX-2 (Macaca mulatta, UniProt F7BWZ9).
T2 sequence (F7BWZ9 18-604): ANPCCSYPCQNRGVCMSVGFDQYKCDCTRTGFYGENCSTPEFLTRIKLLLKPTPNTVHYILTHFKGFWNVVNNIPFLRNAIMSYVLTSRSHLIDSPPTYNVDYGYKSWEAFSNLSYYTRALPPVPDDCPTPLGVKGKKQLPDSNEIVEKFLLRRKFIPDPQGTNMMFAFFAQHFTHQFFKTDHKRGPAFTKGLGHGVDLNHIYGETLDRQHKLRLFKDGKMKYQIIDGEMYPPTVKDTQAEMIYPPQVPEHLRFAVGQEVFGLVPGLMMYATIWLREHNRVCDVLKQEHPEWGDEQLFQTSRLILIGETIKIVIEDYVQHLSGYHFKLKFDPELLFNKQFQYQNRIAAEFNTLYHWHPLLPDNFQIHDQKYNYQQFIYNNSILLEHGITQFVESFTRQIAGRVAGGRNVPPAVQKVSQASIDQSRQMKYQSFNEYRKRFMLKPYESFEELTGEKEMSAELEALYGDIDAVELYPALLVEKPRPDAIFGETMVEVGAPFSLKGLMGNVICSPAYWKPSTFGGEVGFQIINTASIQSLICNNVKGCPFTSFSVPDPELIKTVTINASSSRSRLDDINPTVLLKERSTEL
Put plainly: COX-2 whole-blood enzymatic immunoassay. Type of test: cell-based. The settings on record: read-out: IC50 COX-2 Monkey, mean ± SD (n = 3).

A further test relates to human COX-1. The settings on record: read-out: IC50 for human COX-1 (reported); human whole blood; cited from earlier work.
For test [3], the target named is T3, COX-1 (Rattus norvegicus, UniProt Q63921).
T3 sequence (Q63921 27-602): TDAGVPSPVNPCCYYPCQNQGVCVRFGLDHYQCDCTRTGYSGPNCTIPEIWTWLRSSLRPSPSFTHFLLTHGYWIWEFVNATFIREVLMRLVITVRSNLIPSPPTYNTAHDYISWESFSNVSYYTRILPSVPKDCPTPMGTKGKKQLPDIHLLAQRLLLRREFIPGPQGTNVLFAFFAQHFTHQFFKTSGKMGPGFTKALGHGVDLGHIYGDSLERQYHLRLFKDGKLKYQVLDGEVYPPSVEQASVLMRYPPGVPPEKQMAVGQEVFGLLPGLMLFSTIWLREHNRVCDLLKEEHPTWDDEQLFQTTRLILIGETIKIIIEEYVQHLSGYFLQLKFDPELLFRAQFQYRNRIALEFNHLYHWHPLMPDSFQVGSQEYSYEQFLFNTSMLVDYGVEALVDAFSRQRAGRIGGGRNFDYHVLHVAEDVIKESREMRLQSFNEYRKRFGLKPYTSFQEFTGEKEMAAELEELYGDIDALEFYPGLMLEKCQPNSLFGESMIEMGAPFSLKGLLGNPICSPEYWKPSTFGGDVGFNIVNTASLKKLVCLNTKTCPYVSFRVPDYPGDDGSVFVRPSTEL
The test can be described thus: COX-1 whole-blood enzymatic immunoassay. Type of test: cell-based.

The target in test [4] is COX-1 (Homo sapiens, UniProt P23219). The test can be described thus: COX-1 whole-blood enzymatic immunoassay. Format: cell-based.
Test [5] concerns the target T4, COX-2 (Homo sapiens, UniProt P35354).
T4 sequence (P35354 18-604): T2 sequence (F7BWZ9 18-604) with Y7H, L49F, V101A, F150L, T163S, K191N, D208A, H211R, N363T, R570G
Put plainly: COX-2 whole-blood enzymatic immunoassay. Type of test: cell-based.

The mark [6] stands for this setting: read-out: IC50 COX-1 Human, human whole blood, mean ± SD (n = 3).

The structures appear in SMILES notation. Positions count from the first letter of the chain named. Read-outs that look alike come from different tables or passages of the source. Where only a bound is given, the exact number is not on record here.

Sequence of COX-1 (Homo sapiens, UniProt P23219) (P23219 24-599): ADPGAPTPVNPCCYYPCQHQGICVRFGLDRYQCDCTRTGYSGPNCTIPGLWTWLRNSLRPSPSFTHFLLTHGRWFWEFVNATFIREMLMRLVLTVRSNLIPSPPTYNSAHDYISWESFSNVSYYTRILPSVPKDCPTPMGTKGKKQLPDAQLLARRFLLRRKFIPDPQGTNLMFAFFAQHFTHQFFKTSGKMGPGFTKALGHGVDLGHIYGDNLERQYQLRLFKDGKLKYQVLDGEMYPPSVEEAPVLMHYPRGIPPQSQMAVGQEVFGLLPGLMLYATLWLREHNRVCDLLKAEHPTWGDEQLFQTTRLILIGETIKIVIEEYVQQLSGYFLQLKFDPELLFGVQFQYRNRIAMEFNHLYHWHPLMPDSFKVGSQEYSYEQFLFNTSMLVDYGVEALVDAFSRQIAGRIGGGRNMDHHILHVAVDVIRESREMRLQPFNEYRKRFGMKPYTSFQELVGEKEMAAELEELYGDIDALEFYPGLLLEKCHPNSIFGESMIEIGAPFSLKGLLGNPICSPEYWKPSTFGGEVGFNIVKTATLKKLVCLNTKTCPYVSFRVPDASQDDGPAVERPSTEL

For `C[C@H](C(=O)O)c1cccc(C(=O)c2ccccc2)c1` [Inhibitor 4, (S)-ketoprofen, reference compound], the IC50 is 40 ± 17 nM at COX-1 [1] and 400 ± 113 nM at COX-2 [2].

As to `COc1ccc(-c2nc(OC)nn2-c2ccc(OC)cc2)cc1` [Inhibitor 5], the figures for the IC50 at COX-1 [1], on COX-2 [2] and with human COX-1 were 4.6 ± 1.3 nM, over 1000 nM and 4.9 nM, respectively.

For `COc1ccc(-c2nc(OCC(F)(F)F)nn2-c2ccc(OC)cc2)cc1` [Inhibitor 20, 1,5-Bis(4-methoxyphenyl)-3-(2,2,2-trifluoroethoxy)-1H-1,2,4-triazole], the IC50 on COX-1 [1] was 1 ± 0.3 nM; against COX-1 [3] it was 15 nM; on COX-2 [2], over 1000 nM.

Turning to `COc1ccc(-n2nc(C(F)(F)F)nc2-c2ccc(F)nc2)cc1` [Inhibitor 24, 2-Fluoro-5-(1-(4-methoxyphenyl)-3-(trifluoromethyl)-1H-1,2,4-triazol-5-yl)pyridine], the IC50 on COX-1 [4] is 2 ± 0.1 nM; on COX-1 [1] it was 10 ± 3 nM; against COX-2 [5], over 1000 nM.

For `COc1ccc(-c2nc(SCF)nn2-c2ccc(OC)cc2)cc1` [Inhibitor 26, 3-(Fluoromethylthio)-1,5-bis(4-methoxyphenyl)-1H-1,2,4-triazole], the results for the IC50 against COX-1 [4], on COX-1 [1] and against COX-2 [5] were 5 ± 3.9 nM, 6.4 ± 0.8 nM and over 1000 nM, respectively.

Take `COc1ccc(-c2nc([S+]([O-])CF)nn2-c2ccc(OC)cc2)cc1` (stereo not drawn) [Inhibitor 27, 3-(Fluoromethylsulfinyl)-1,5-bis(4-methoxyphenyl)-1H-1,2,4-triazole]: the IC50 is 3 ± 1.7 nM against COX-1 [4], 5 ± 2 nM at COX-1 [1], 545 ± 102 nM at COX-2 [2] and over 1000 nM against COX-2 [5].

As to `COc1ccc(-c2nc(S(=O)(=O)CF)nn2-c2ccc(OC)cc2)cc1` [Inhibitor 28, 3-(Fluoromethylsulfonyl)-1,5-bis(4-methoxyphenyl)-1H-1,2,4-triazole], the IC50 is 3 ± 1.2 nM against COX-1 [4], 25 ± 3 nM at COX-1 [1] and over 1000 nM against COX-2 [5].

Take `COc1ccc(-n2nc(OC)nc2-c2ccccc2)cc1` [Inhibitor 31, 3-Methoxy-1-(4-methoxyphenyl)-5-phenyl-1H-1,2,4-triazole]: the half-inhibitory concentration (IC50) on COX-1 [4] (setting [6]) was 3 ± 0.06 nM; at COX-1 [1], 3 ± 2.5 nM; at COX-2 [5] (read-out: IC50 COX-2 Human, human whole blood, mean ± SD (n = 3)), over 1000 nM.

With `COc1ccc(-n2nc(OCF)nc2-c2ccccc2)cc1` [Inhibitor 32, 3-(Fluoromethoxy)-1-(4-methoxyphenyl)-5-phenyl-1H-1,2,4-triazole], the IC50 was found to be 1.7 ± 0.6 nM at COX-1 [4], 100 nM at COX-1 [1] and 100 ± 25 nM against COX-2 [5].

Consider `COc1cc(NCc2cccs2)nc(-c2ccc(S(C)(=O)=O)cc2)n1` [Inhibitor 34, [2-(4-Methanesulfonylphenyl)-6-methoxypyrimidin-4-yl]thiophen-2-ylme-thylamine, reference compound], for which the IC50 was over 1000 nM on COX-1 [4] (setting [6]), over 1000 nM on COX-1 [1] and 1 ± 0.5 nM on COX-2 [2].
